According to patent US11141495B2, “MRI imaging of amyloid plaque using liposomes” (Texas Children's Hospital, priority 2014, dated 2021):
Read-outs that look alike come from different tables or passages of the source.

Legend:
Aβ(1-40) fibrils [1] = molecular target: T1, Aβ(1-40) fibrils (Homo sapiens, UniProt P05067); assay: Competitive binding assay to fibrils versus Chrysamine G; settings: for % bound to fibrils in competition with Chrysamine-G: Chrysamine-G concentration of 1 μM, 20 μM fibrils, 1.0 μM test compound
T1 construct: Aβ(1-40) peptide (rPeptide, Bogart, Ga.); purchased rPeptide, Bogart, Ga
Experimental: (§1) Aβ fibrils were synthesized according to the method of Klunk et al. Ann Neurol, 2004; 55: 306-19, the entire teachings of which are incorporated herein by reference. Briefly, Aβ(1-40) peptide (rPeptide, Bogart, Ga.) was dissolved in phospho-buffered saline, pH 7.4 to a final concentration of 433 μg/mL (100 μM). The solution was stirred using a magnetic stir bar at 700 rpm for 4 h at room temperature to drive the formation of fibrils. The stock solution was aliquoted and stored at −80° C. for future use. The stock solutions were stirred thoroughly before removing aliquots for binding assays to maintain a homogenous suspension of fibrils. […]
(§2) Binding assay: The binding affinity of the compounds or compound-labeled liposomes with the amyloid fibrils was measured by following methods. Ligand-labeled liposomes, ligand stock solutions, and Chrysamine G fix competition assays were diluted with […] to 500 nM. Fibril stock solution was mixed with a stock solution of the compound or the compound-labeled liposomes in a 200 μL reaction mix to give a final concentration of fibrils (20 μM) with test compounds varying from 0.0625-20 μM. The binding mixture was incubated at room temperature for 1 h. Subsequently, the incubated binding mixture was centrifuged for 20 min at 16,400 rpm to separate the fibrils. The fibril precipitate was washed twice with Tris-HCl. Fluorescence was then measured in a Filter Max F-5 multi-mode plate reader (Molecular Devices, Sunnyvale, Calif.), using excitation and emission wavelengths of 405 nm and 535 nm, respectively. Competitive binding assays used 20 μM of fibrils, 1.0 μM test compounds and varying amounts of the non-fluorescent competitor, Chrysamine G and incubated for 1 h.

Aβ(1-40) fibrils [2] = molecular target: T1, Aβ(1-40) fibrils; assay: Binding assay of compounds or compound-labeled liposomes with amyloid fibrils (fluorescence of washed fibrils); settings: for binding to fibrils, relative fluorescence unit: at a concentration of 1 μM
Experimental: as §1, §2
FIG. 7B is a graph showing fibril binding data and a calculated fit for estimation of the binding constant far Compound ii to fibrils at Kd=5.0 μM. FIG. 7C is a graph showing fibril binding data and a calculated fit for estimation of the binding constant for Compound iii to fibrils at Kd=5.0 μM. […] Binding to fibrils was quantified by measuring the fluorescence of the respective binding agent to washed fibrils. The data was fitted to a monolayer binding equation; Kd=1/Kb.

amyloid plaques = assay: Fluorescent staining of human AD frontal cortex tissue sections; settings: frontal cortex of an AD autopsy case; 1 mM, 2 hours
Experimental: (§3) Compound iii solutions in PBS were incubated with frontal cortex tissue obtained from autopsy of an AD patient (the University of Kentucky Institutional Review Board approved the use of human tissue for the study; informed consent was obtained prior to autopsy) and a 12.3 year old canine. Both the human and canine tissues had Alzheimer's amyloid pathology confirmed from previous studies. 50 μm thick free-floating sections were mounted on slides and allowed to dry overnight. Slides were then washed in PBS (3×5 min) and incubated in Compound iii solution (1 mM) for 2 hours and then again washed 3×5 min in PBS, and coverslipped in Vectashield mounting medium with […] (Vector Laboratories, Burlingame, Calif.). Sections were imaged on an Olympus BX-51 microscope with a broadpass filter (Olympus Corporation of the Americas, Center Valley, Pa.).

[3] = test system: cerebral amyloid angiopathy; assay: Fluorescent staining of aged dog frontal cortex tissue sections; settings: 12.3 year old canine, 1 mM, 2 hours
Experimental: as §3

T1 sequence (P05067 672-711): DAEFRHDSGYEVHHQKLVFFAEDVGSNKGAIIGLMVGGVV

In the case of `CN(CCO)c1ccc(/C=C/c2ccncn2)cc1` [Compound ii, (E)-2-{methyl[4-(2-(pyrimidin-4-yl)vinyl)phenyl]amino}ethanol], the “% bound to fibrils in competition with Chrysamine-G” value (“% bound to fibrils in competition” for short) (Aβ(1-40) fibrils [1]) is reported as “about 45%”, the Kd (Aβ(1-40) fibrils [2]; 20 μM fibrils, read-out: Kd, binding constant to fibrils (calculated fit, monolayer binding equation)) is reported as 5 µM and the “binding to fibrils, relative fluorescence unit” value (Aβ(1-40) fibrils [2]; 20 μM fibrils) is reported as 35 m RFU.
`COc1cc(/C=C/c2ccc(O)cc2)ccc1/C=C/c1ccc(O)cc1` [MeXO4, reference compound] was tested, and the “bound species displaced by Chrysamine G” value (Aβ(1-40) fibrils [1]) was greater than 80%, the “% bound to fibrils in competition” value (Aβ(1-40) fibrils [1]) was “about 20%” and the “binding to fibrils, relative fluorescence unit” value (Aβ(1-40) fibrils [2]; 20 μM fibrils) was “less than 100 k RFU”.
For `OCCN(CCO)c1ccc(/C=C/c2ccncn2)cc1` [Compound iii, (E)-2,2′-{[4-(2-(pyrimidin-4-yl)vinyl)phenyl]azanediyl}diethanol], the “% bound to fibrils in competition” value (Aβ(1-40) fibrils [1]) was “about 55%”, the Kd (Aβ(1-40) fibrils [2]) was 5 µM and the “binding to fibrils, relative fluorescence unit” value (Aβ(1-40) fibrils [2]; 20 μM fibrils) was 400 k RFU. The “staining of amyloid plaques in human brain tissue” value (amyloid plaques) was “specifically stains amyloid plaques” and the “labeling of cerebral amyloid angiopathy in aged dog brain tissue” value [3] was “labels cerebral amyloid angiopathy”.
